The numbers were not newly measured in patent publication US10172842B2, “Sustained release oral dosage form containing dalfampridine” (PharmaDax Inc., priority 2015, dated 2019), which cites them from elsewhere.

For data set [1] the following is noted: plasma concentrations lower than 13 ng/mL.
For data set [2] the following is noted: in the absence of other risk factors.

Structures are written as SMILES.

`Nc1ccncc1` [dalfampridine, 4-aminopyridine]: in data set [1], the “changes in walking speed in MS patients” value was “low percentage changes in walking speed”. The “plasma dalfampridine concentration considered a likely threshold for increased risk of seizure” value in data set [2] is recorded as “approximately 100 ng/mL”.
